Numbers after ± are expanded uncertainties.
Test: xn = mol fraction of the nth substance listed
Details: 100 kPa, Liquid; for viscosity: Concentric cylinders viscometry; for mass density: Vibrating tube method

CCOC(=O)CCC(=O)OCC [diethyl butanedioate] + CC(C)CO
Details | mass density, 308.15 K [kg/m3] | mass density, 313.15 K [kg/m3] | mass density, 318.15 K [kg/m3] | mass density, 323.15 K [kg/m3] | viscosity, 308.15 K [mPa·s] | viscosity, 313.15 K [mPa·s] | viscosity, 318.15 K [mPa·s] | viscosity, 323.15 K [mPa·s]
x1 = 0.0999 | 827.9 ± 1.6 | 823.63 ± 1.6 | 819.31 ± 1.6 | 814.95 ± 1.6 | 1.875 ± 0.016 | 1.657 ± 0.015 | 1.471 ± 0.013 | 1.324 ± 0.012
x1 = 0.2 | 860.85 ± 1.6 | 856.36 ± 1.6 | 851.84 ± 1.6 | 847.28 ± 1.6 | 1.659 ± 0.015 | 1.484 ± 0.013 | 1.334 ± 0.012 | 1.218 ± 0.011
x1 = 0.3001 | 889.88 ± 1.6 | 885.22 ± 1.6 | 880.53 ± 1.6 | 875.82 ± 1.6 | 1.574 ± 0.014 | 1.418 ± 0.013 | 1.283 ± 0.012 | 1.175 ± 0.011
x1 = 0.4 | 915.68 ± 1.6 | 910.89 ± 1.6 | 906.08 ± 1.6 | 901.24 ± 1.6 | 1.557 ± 0.014 | 1.409 ± 0.013 | 1.281 ± 0.012 | 1.18 ± 0.011
x1 = 0.4999 | 938.56 ± 1.6 | 933.67 ± 1.6 | 928.76 ± 1.6 | 923.83 ± 1.6 | 1.576 ± 0.015 | 1.43 ± 0.013 | 1.304 ± 0.012 | 1.201 ± 0.012
x1 = 0.5999 | 959.14 ± 1.6 | 954.16 ± 1.6 | 949.18 ± 1.6 | 944.18 ± 1.6 | 1.629 ± 0.015 | 1.48 ± 0.014 | 1.352 ± 0.013 | 1.249 ± 0.012
x1 = 0.6999 | 977.68 ± 1.6 | 972.64 ± 1.6 | 967.59 ± 1.6 | 962.54 ± 1.6 | 1.686 ± 0.016 | 1.534 ± 0.015 | 1.403 ± 0.014 | 1.3 ± 0.013
x1 = 0.8 | 994.51 ± 1.6 | 989.42 ± 1.6 | 984.32 ± 1.6 | 979.22 ± 1.6 | 1.775 ± 0.017 | 1.614 ± 0.016 | 1.476 ± 0.014 | 1.366 ± 0.013
x1 = 0.9 | 1009.9 ± 1.6 | 1004.76 ± 1.6 | 999.62 ± 1.6 | 994.48 ± 1.6 | 1.882 ± 0.018 | 1.71 ± 0.017 | 1.562 ± 0.015 | 1.438 ± 0.014
x1 = 1 | 1024.08 ± 1.6 | 1018.9 ± 1.6 | 1013.72 ± 1.6 | 1008.55 ± 1.6 | 2.008 ± 0.02 | 1.821 ± 0.018 | 1.66 ± 0.017 | 1.523 ± 0.015
